Values quoted from earlier work in patent publication US20130303628A1, “CURCUMINOID SOLID DISPERSION FORMULATION” (ABBOTT LABORATORIES, priority 2010, published 2013).

Conditions: acidic and neutral pH

solubility in water: practically insoluble
SMILES: COc1cc(C=CC(=O)CC(=O)C=Cc2ccc(O)c(OC)c2)ccc1O [Curcumin, 1,7-Bis-(4-hydroxy-3-methoxyphenyl)-hepta-1,6-diene-3,5-dione]
